# US9695154B2, “Heteroaryl inhibitors of sumo activating enzyme” (MILLENNIUM PHARMACEUTICALS, INC., priority 2013, dated 2017)
# Target: T1, recombinant human SAE enzyme (Homo sapiens, UniProt Q9UBT2)
# T1 sequence (Q9UBT2 1-640): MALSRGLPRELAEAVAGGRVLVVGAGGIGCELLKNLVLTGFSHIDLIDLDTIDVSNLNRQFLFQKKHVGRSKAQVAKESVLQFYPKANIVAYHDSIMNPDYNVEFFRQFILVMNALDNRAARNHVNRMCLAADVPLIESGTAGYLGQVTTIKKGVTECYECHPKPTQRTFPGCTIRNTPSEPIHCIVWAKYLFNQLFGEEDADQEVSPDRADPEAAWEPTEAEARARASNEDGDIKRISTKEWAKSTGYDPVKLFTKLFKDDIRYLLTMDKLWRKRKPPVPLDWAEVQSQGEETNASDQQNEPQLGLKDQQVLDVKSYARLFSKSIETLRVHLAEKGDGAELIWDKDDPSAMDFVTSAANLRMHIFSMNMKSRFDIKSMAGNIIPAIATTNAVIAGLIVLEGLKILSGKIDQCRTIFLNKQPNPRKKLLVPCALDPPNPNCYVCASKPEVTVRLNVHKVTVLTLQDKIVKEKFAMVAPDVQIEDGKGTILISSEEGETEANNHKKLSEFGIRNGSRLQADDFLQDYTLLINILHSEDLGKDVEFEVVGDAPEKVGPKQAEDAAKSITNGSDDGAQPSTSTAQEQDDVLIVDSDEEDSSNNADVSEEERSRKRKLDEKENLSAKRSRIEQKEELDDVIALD
# T1 sequence (Q9UBE0 1-346 partner): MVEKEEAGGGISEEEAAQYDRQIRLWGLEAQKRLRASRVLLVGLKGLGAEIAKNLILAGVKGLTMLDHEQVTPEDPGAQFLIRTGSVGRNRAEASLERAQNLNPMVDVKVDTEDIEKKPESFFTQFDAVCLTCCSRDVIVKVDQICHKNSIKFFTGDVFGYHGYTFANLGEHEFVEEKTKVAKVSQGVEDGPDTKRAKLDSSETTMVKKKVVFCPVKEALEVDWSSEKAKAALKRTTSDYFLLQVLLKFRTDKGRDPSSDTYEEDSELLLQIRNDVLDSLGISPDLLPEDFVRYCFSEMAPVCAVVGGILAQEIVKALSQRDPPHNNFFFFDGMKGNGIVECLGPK
# Test: SAE HTRF Enzyme Assay
# Format: biochemical
# Details: for IC50: class symbols A-C; for inhibition at 0.111 µM: compound concentration 0.111 μM, read-out: Percent Inhibition
# How it was run: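 Sumoylation of Ubc9-GST by recombinant human SAE was followed by time-resolved FRET between Eu-cryptate anti-Flag and allophycocyanin anti-GST antibodies. The enzyme step used low ATP (0.5 μM) at pH 7.5 and ran 105 min at 24° C.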
Compound,IC50,inhibition at 0.111 µM
"NS(=O)(=O)OC[C@H]1C[C@@H](Nc2ncncc2C(=O)c2ccn(Cc3cccc(C(F)(F)F)c3)n2)[C@H](O)[C@@H]1O [Compound I-119, [(1R,2R,3S,4R)-2,3-dihydroxy-4-{[5-({1-[3-(trifluoromethyl)benzyl]-1H-pyrazol-3-yl}carbonyl)pyrimidin-4-yl]amino}cyclopentyl]methyl sulfamate]",< 10 nM,98%
"NS(=O)(=O)OC[C@H]1C[C@@H](Nc2ncncc2C(=O)c2ccn(Cc3cccc(C4(O)COC4)n3)n2)C[C@@H]1O [Compound I-120, [(1R,2S,4R)-2-hydroxy-4-({5-[(1-{[6-(3-hydroxyoxetan-3-yl)pyridin-2-yl]methyl) 1H pyrazol-3-yl)carbonyl]pyrimidin-4-yl}amino)cyclopentyl]methyl sulfamate]",100 to 1000 nM,47%
"NS(=O)(=O)OC[C@H]1C[C@@H](Nc2ncncc2C(=O)c2ccn(Cc3ccc(F)cc3C(F)(F)F)n2)[C@H](O)[C@@H]1O [Compound I-121, [(1R,2R,3S,4R)-4-{[5-({1-[4-fluoro-2-(trifluoromethyl)benzyl]-1H-pyrazol-3-yl}carbonyl)pyrimidin-4-yl]amino}-2,3-dihydroxycyclopentyl]methyl sulfamate]",< 10 nM,94%
"NS(=O)(=O)OC[C@H]1C[C@@H](Nc2ncncc2C(=O)c2ccn(Cc3ccc(F)c(Cl)c3)n2)[C@@H](F)[C@@H]1O [Compound I-122, {(1R,2R,3R,4R)-4-[(5-{[1-(3-chloro-4-fluorobenzyl)-1H-pyrazol-3-yl]carbonyl}pyrimidin-4-yl)amino]-3-fluoro-2-hydroxycyclopentyl}methyl sulfamate]",< 10 nM,99%
"NS(=O)(=O)OC[C@H]1C[C@@H](Nc2ncncc2C(=O)c2ccn(Cc3cccc(F)c3)n2)[C@H](O)[C@@H]1O [Compound I-123, {(1R,2R,3S,4R)-4-[(5-{[1-(3-fluorobenzyl)-1H-pyrazol-3-yl]carbonyl}pyrimidin-4-yl)amino]-2,3-dihydroxycyclopentyl}methyl sulfamate]",< 10 nM,100%
"NS(=O)(=O)OC[C@H]1C[C@@H](Nc2ccncc2C(=O)c2ccn(Cc3cccc(Cl)c3)c2)[C@@H](F)[C@@H]1O [Compound I-124, {(1R,2R,3R,4R)-4-[(3-{[1-(3-chlorobenzyl)-1H-pyrrol-3-yl]carbonyl}pyridin-4-yl)amino]-3-fluoro-2-hydroxycyclopentyl}methyl sulfamate]",< 10 nM,97%
"NS(=O)(=O)OC[C@H]1C[C@@H](Nc2ncncc2C(=O)c2ccn(CC(=O)c3ccccc3)n2)[C@H](O)[C@@H]1O [Compound I-125, {(1R,2R,3S,4R)-2,3-Dihydroxy-4-[(5-{([1-(2-oxo-2-phenylethyl)-1H-pyrazol-3-yl]carbonyl}pyrimidin-4-yl)amino]cyclopentyl}methyl sulfamate]",< 10 nM,99%
"NS(=O)(=O)OC[C@H]1C[C@@H](Nc2ncncc2C(=O)c2ccn(Cc3ccc(Cl)c(SC(F)(F)F)c3)n2)[C@H](O)[C@@H]1O [Compound I-126, [(1R,2R,3S,4R)-4-({5-[(1-{4-chloro-3-[(trifluoromethyl)sulfanyl]benzyl}-1H-pyrazol-3-yl)carbonyl]pyrimidin-4-yl}amino)-2,3-dihydroxycyclopentyl]methyl sultamate]",< 10 nM,> 99%
"NS(=O)(=O)OC[C@H]1C[C@@H](Nc2ncncc2C(=O)c2ccn(Cc3ccc(Cl)c(Br)c3)n2)[C@@H](F)[C@@H]1O [Compound I-127, {(1R,2R,3R,4R)-4-[(5-{[1-(3-bromo-4-chlorobenzyl)-1H-pyrazol-3-yl]carbonyl}pyrimidin-4-yl)amino]-3-fluoro-2-hydroxycyclopentyl}methyl sulfamate]",< 10 nM,99%
"Cc1cccc(Cn2ccc(C(=O)c3cncnc3N[C@@H]3C[C@H](COS(N)(=O)=O)[C@@H](O)C3)n2)c1 [Compound I-128, {(1R,2S,4R)-2-hydroxy-4-[(5-{[1-(3-methylbenzyl)-1H-pyrazol-3-yl]carbonyl}pyrimidin-4-yl)amino]cyclopentyl}methyl sulfamate]",< 10 nM,98%
"NS(=O)(=O)OC[C@H]1C[C@@H](Nc2ncncc2C(=O)c2ccn(Cc3cccc(C(F)(F)F)c3)c2)C[C@@H]1O [Compound I-129, [(1R,2S,4R)-2-hydroxy-4-{[5-({1-[3-(trifluoromethyl)benzyl]-1H-pyrrol-3-yl}carbonyl)pyrimidin-4-yl]amino}cyclopentyl]methyl sulfamate]",< 10 nM,99%
"NS(=O)(=O)OC[C@H]1C[C@@H](Nc2ncncc2C(=O)c2ccn(Cc3ccc(C(F)(F)F)o3)n2)[C@H](O)[C@@H]1O [Compound I-130, [(1R,2R,3S,4R)-2,3-dihydroxy-4-({5-[(1-{[5-(trifluoromethyl)-2-furyl]methyl}-1H-pyrazol-3-yl)carbonyl]pyrimidin-4-yl}amino)cyclopentyl]methyl sulfamate]",< 10 nM,98%
"NS(=O)(=O)OC[C@H]1C[C@@H](Nc2ncncc2C(=O)c2ccn(Cc3cccc(OC(F)(F)F)c3)c2)[C@@H](F)[C@@H]1O [Compound I-131, [(1R,2R,3R,4R)-3-Fluoro-2-hydroxy-4-{[5-({1-[3-(trifluoromethoxy)benzyl]-1H-pyrrol-3-yl}carbonyl)pyrimidin-4-yl]amino}cyclopentyl]methyl sulfamate]",< 10 nM,96%
"NS(=O)(=O)OC[C@H]1C[C@@H](Nc2ccncc2C(=O)c2ccn(Cc3cccc(OC(F)(F)F)c3)c2)[C@@H](F)[C@@H]1O [Compound I-132, [(1R,2R,3R,4R)-3-Fluoro-2-hydroxy-4-{[3-({1-[3-(trifluoromethoxy)benzyl]-1H-pyrrol-3-yl}carbonyl)pyridin-4-yl]amino}cyclopentyl]methyl sulfamate]",10 to 100 nM,78%
"NS(=O)(=O)OC[C@H]1C[C@@H](Nc2ncncc2C(=O)c2ccn(Cc3ccc(F)c(OC(F)(F)F)c3)n2)[C@H](O)[C@@H]1O [Compound I-134, [(1R,2R,3S,4R)-4-{[5-({1-[4-fluoro-3-(trifluoromethoxy)benzyl]-1H-pyrazol-3-yl}carbonyl)pyrimidin-4-yl]amino}-2,3-dihydroxycyclopentyl]methyl sulfamate]",< 10 nM,98%
"NS(=O)(=O)OC[C@H]1C[C@@H](Nc2ncncc2C(=O)c2ccn(Cc3ccccc3)n2)[C@@H](O)[C@@H]1O [Compound I-135, [(1R,2R,3R,4R)-4-({5-[(1-Benzyl-1H-pyrazol-3-yl)carbonyl]pyrimidin-4-yl}amino)-2,3-dihydroxycyclopentyl]methyl sulfamate]",10 to 100 nM,81%
"NS(=O)(=O)NC[C@H]1C[C@@H](Nc2ncncc2C(=O)c2ccn(Cc3cccc(Cl)c3)n2)[C@H](O)[C@@H]1O [Compound I-136, N-({(1R,2R,3S,4R)-4-[(5-{[1-(3-Chlorobenzyl)-1H-pyrazol-3-yl]carbonyl}pyrimidin-4-yl)amino]-2,3-dihydroxycyclopentyl}methyl)sulfuric diamide]",10 to 100 nM,88%
"C[Si](C)(C)c1cccc(Cn2ccc(C(=O)c3cncnc3N[C@@H]3C[C@H](COS(N)(=O)=O)[C@@H](O)C3)n2)c1 [Compound I-137, [(1R,2S,4R)-2-hydroxy-4-{[5-({1-[3-(trimethylsilyl)benzyl]-1H-pyrazol-3-yl}carbonyl)pyrimidin-4-yl]amino}cyclopentyl]methyl sulfamate]",10 to 100 nM,78%
"Cc1cc(C(=O)c2cncnc2N[C@@H]2C[C@H](COS(N)(=O)=O)[C@@H](O)[C@H]2O)nn1Cc1ccc(C(F)(F)F)o1 [Compound I-138, [(1R,2R,3S,4R)-2,3-Dihydroxy-4-({5-[(5-methyl-1-{[5-(trifluoromethyl)-2-furyl]methyl}-1H-pyrazol-3-yl)carbonyl]pyrimidin-4-yl}amino)cyclopentyl]methyl sulfamate]",< 10 nM,99%
"NS(=O)(=O)OC[C@H]1C[C@@H](Nc2ncncc2C(=O)c2nn(Cc3ccccc3)cc2Cl)[C@H](O)[C@@H]1O [Compound I-139, [(1R,2R,3S,4R)-4-({5-[(1-benzyl-4-chloro-1H-pyrazol-3-yl)carbonyl]pyrimidin-4-yl}amino)-2,3-dihydroxycyclopentyl]methyl sulfamate]",< 10 nM,86%
